{
  "source": "paper PMC8024735",
  "about": "“Low Z‐4OHtam concentrations are associated with adverse clinical outcome among early stage premenopausal breast cancer patients treated with adjuvant tamoxifen” (Molecular Oncology, 2020)",
  "key": {"[1]": {"assay": "Quantification of tamoxifen and seven metabolites in bone marrow plasma by LC-MS/MS", "conditions": "for Mean concentration / Median concentration: bone marrow plasma, N = 406, ~ 8 months from tamoxifen initiation", "experimental": "During the isolation of mononuclear cells, BM samples were diluted 1 : 2 in PBS and centrifuged 10 min at 1000 g. After centrifugation, 3 × 1 mL samples of BM plasma was removed and stored at −40 °C and later transferred to −80 °C.\nTamoxifen and seven metabolites (Table 2) were quantified in human BM plasma samples collected ~ 8 months from tamoxifen initiation using our previously described method for serum [17]. In brief, protein precipitation (20 μL) of BM plasma was performed in acetonitrile containing deuterated internal standards. The supernatant (80 μL) was evaporated to dryness using nitrogen and subsequently reconstituted in 500 μL water : methanol (20 : 80, v:v). Subsequently, the samples were chromatographically separated on a Waters Acquity UPLC system (Milford, MA, USA) using a Waters BEH Phenyl column (100 mm × 2.1 mm, 1.7 μm particle size). The column was developed by a gradient elution of 0.01% aqueous solution of formic acid and methanol as weak and strong mobile phases, respectively. The compounds were subjected to atmospheric pressure photoionization and detected in positive ion mode using a Xevo TQ‐S tandem mass spectrometer (Waters, Taunton, MA, USA). All measured concentrations were multiplied by 3 to account for the dilution factor caused by adding 2 volumes of PBS during the isolation of mononuclear cells."}, "breast cancer patients": {"tested_on": "breast cancer patients", "parameters": "method as in PMID 29183390", "conditions": "thresholds Z-4OHtam 3.26 nM, Z-endoxifen 9 nM, learning set; cited from earlier work"}, "[2]": {"parameters": "method as in printed", "conditions": "has been reported, ref not given; cited from earlier work"}, "[3]": {"tested_on": "estrogen receptor‐positive breast cancer (BC) patients", "assay": "Breast cancer-specific survival (BCSS) according to active metabolite thresholds, Kaplan-Meier and Cox regression", "assay_type": "in vivo, human", "text": "Patients included in this retrospective analysis were selected from subjects on a prospective trial investigating the value of Secondary Adjuvant (rescue) Treatment with docetaxel (Taxotere) [SATT (Secondary Adjuvant Treatment with Taxotere) study] for BC patients with disseminated tumor cells in their bone marrow (BM). […] Inclusion criteria were completion of primary surgery, completion of six cycles of anthracycline (AC)‐containing chemotherapy, and node‐positive or pT1c‐T4G2‐3 node‐negative BC with no earlier or other concomitant carcinoma.\nThus, they reflect patients treated with endocrine treatment outside studies, according to national guidelines.\nSelection of patients younger than 45 years ensured that the patients received tamoxifen as a monotherapy for 5 years according to guidelines at the time of inclusion. […] Patients with plasma tamoxifen concentrations of < 40 nM were considered to be nonadherent to tamoxifen and excluded from both subgroups. As molecular subtyping was not available, the relevance of luminal subgroup status on active metabolite thresholds was investigated by creation of a Luminal B‐like subgroup based on tumor pathological surrogate markers available. […] All other patients were grouped as Luminal A [29, 30].\nSurvival analyses included Kaplan–Meier and Cox regression analyses in which breast cancer‐specific survival (BCSS), defined as time from inclusion to death by BC, was used as the main outcome variable. The log‐rank test was applied to test for statistical difference in survival between groups. […] First, we fitted univariable Cox models. Next, in multivariable Cox regression models we included both clinically relevant variables and variables with a P‐value ≤ 0.2 from the univariable analysis. […] Distribution of metabolite concentrations and clinical variables was calculated and presented as means, medians, and frequencies. Interpatient variability in tamoxifen concentrations was calculated as coefficients of variation. Ratios between Z‐endoxifen and Z‐4OHtam were calculated by dividing the two metabolite concentrations and reported as means with range. All statistical analyses were conducted using IBM ® SPSS ® Statistics version 25 (SPSS, Inc., Chicago, IL, USA). Two‐tailed P‐values < 0.05 were considered statistically significant."}, "ER": {"tested_on": "ER", "conditions": "fold higher than tamoxifen; cited from earlier work"}, "ER‐positive BC": {"tested_on": "ER‐positive BC", "parameters": "method as in PMID 15894097", "conditions": "patients using tamoxifen; cited from earlier work"}, "[4]": {"conditions": "all analyzed patients (n = 406)"}},
  "note": "Values joined by “and” are separate entries in the source; they are usually repeats but may differ in a detail not shown here. Identical values can stand only once.",
  "data": [
    {"smiles": "CCC(=C(c1ccccc1)c1ccc(OCCNC)cc1)c1ccc(O)cc1", "note": "[Z‐4'‐endoxifen]", "values": [
      {"measurement": "Mean concentration", "setting": "[1]", "value": 20.8, "unit": "nM"},
      {"measurement": "Median concentration", "setting": "[1]", "value": 19.6, "unit": "nM"}
    ]},
    {"smiles": "CC/C(=C(\\c1ccc(O)cc1)c1ccc(OCCNC)cc1)c1ccccc1", "note": "[Z‐endoxifen, 4‐hydroxy‐N‐desmethyl tamoxifen]", "values": [
      {"measurement": "Hazard ratio (HR) of threshold in prior report", "setting": "breast cancer patients", "value": 3.73},
      {"measurement": "Abundance in serum compared with Z-4OHtam", "setting": "[2]", "value": "up to 10 times"},
      {"measurement": "Association of ordinal categories (low, moderate, high concentration) with BCSS", "setting": "[3]; 'tamoxifen-only' subgroup", "value": "No significant associations"},
      {"measurement": "Association of threshold with BCSS", "setting": "[3]; 'tamoxifen-only' subgroup, uni-/multivariable", "value": "No uni‐/multivariable associations"},
      {"measurement": "HR for BCSS", "setting": "[3]; Z-endoxifen 9.00 nM threshold, all patients n = 406", "value": "0.63 (0.15-2.60)"},
      {"measurement": "HR (95% CI) for BCSS, univariable", "setting": "[3]; Z-endoxifen ≤ 9 nM vs > 9 nM, 'tamoxifen-only' subgroup n = 191", "value": "0.98 (0.23–4.15)"},
      {"measurement": "Association of concentrations below thresholds with BCSS", "setting": "[3]; all 406 patients, thresholds 9 nM Z-endoxifen, 3.26 nM Z-4OHtam", "value": "not associated with BCSS"},
      {"measurement": "Predictive value of thresholds in Luminal A / Luminal B-like subgroups", "setting": "[3]; post hoc analysis, thresholds 3.26 and 9 nM", "value": "not predictive of survival in either subgroup"},
      {"measurement": "Median ratio between Z-endoxifen and Z-4OHtam concentrations", "setting": "[1]; 'tamoxifen-only' subgroup", "value": 5.6},
      {"measurement": "Range of ratio between Z-endoxifen and Z-4OHtam concentrations", "setting": "[1]; 'tamoxifen-only' subgroup", "value": "1.9–14.9"},
      {"measurement": "Median ratio between Z-endoxifen and Z-4OHtam concentrations", "setting": "[1]; [4]", "value": 5.7},
      {"measurement": "Range of ratio between Z-endoxifen and Z-4OHtam concentrations", "setting": "[1]; [4]", "value": "1.2–14.9"},
      {"measurement": "Mean concentration", "setting": "[1]", "value": 28.7, "unit": "nM"},
      {"measurement": "Median concentration", "setting": "[1]", "value": 26.6, "unit": "nM"},
      {"measurement": "Affinity to the ER compared with tamoxifen", "setting": "ER", "value": "100 × and ~ 100 ×"}
    ]},
    {"smiles": "CC/C(=C(\\c1ccccc1)c1ccc(OCCN(C)C)cc1)c1ccccc1", "note": "[Tam, tamoxifen]", "values": [
      {"measurement": "Patients experiencing a relapse within 10 years", "setting": "ER‐positive BC", "value": "~ 25%"},
      {"measurement": "Mean concentration", "setting": "[1]", "value": 365.9, "unit": "nM"},
      {"measurement": "Median concentration", "setting": "[1]", "value": 341.2, "unit": "nM"}
    ]},
    {"smiles": "CC/C(=C(\\c1ccccc1)c1ccc(OCC[N+](C)(C)[O-])cc1)c1ccccc1", "note": "[TamNoX]", "values": [
      {"measurement": "Mean concentration", "setting": "[1]", "value": 49.9, "unit": "nM"},
      {"measurement": "Median concentration", "setting": "[1]", "value": 43.1, "unit": "nM"}
    ]},
    {"smiles": "CC/C(=C(\\c1ccccc1)c1ccc(OCCNC)cc1)c1ccccc1", "note": "[NDtam]", "values": [
      {"measurement": "Mean concentration", "setting": "[1]", "value": 694.9, "unit": "nM"},
      {"measurement": "Median concentration", "setting": "[1]", "value": 655.8, "unit": "nM"}
    ]},
    {"smiles": "CC/C(=C(\\c1ccccc1)c1ccc(OCCN)cc1)c1ccccc1", "note": "[NNDDtam, N,N‐di‐desmethyl tamoxifen]", "values": [
      {"measurement": "Mean concentration", "setting": "[1]", "value": 94.7, "unit": "nM"}
    ]},
    {"smiles": "CC/C(=C(\\c1ccc(O)cc1)c1ccc(OCCN(C)C)cc1)c1ccccc1", "note": "[Z‐4OHtam, Z‐4‐hydroxy‐tamoxifen]", "values": [
      {"measurement": "Affinity to the ER compared with tamoxifen", "setting": "ER", "value": "100 × and ~ 100 ×"}
    ]},
    {"smiles": "CC/C(=C(\\c1ccccc1)c1ccc(OCCN(C)C)cc1)c1ccc(O)cc1", "note": "[Z‐4'‐OHtam]", "values": [
      {"measurement": "Mean concentration", "setting": "[1]", "value": 6.9, "unit": "nM"},
      {"measurement": "Median concentration", "setting": "[1]", "value": 6.6, "unit": "nM"}
    ]}
  ]
}
